Read-outs that look alike come from different tables or passages of the source.
Experiments:
[1] = Microsomal stability assay, human liver microsomes;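 note: pooled human liver microsomes at 0.25 mg/mL with 1 µM compound and NADPH at 37 °C, pH 7.4, for 30 min, unchanged parent quantified by LC-MS/MS against the 0 min sample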
CYP3A4 (CYP3A) = CYP3A4 (CYP3A) (Homo sapiens, UniProt P08684); test: in vitro; details: microsomes, pH 7.4;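 note: inhibition of CYP3A-mediated 1-hydroxymidazolam formation after 10 min incubation with NADPH, quantified by HPLC MS relative to metabolite produced without test compound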
CYP3A4 (CYP3A), sequence (P08684 2-503): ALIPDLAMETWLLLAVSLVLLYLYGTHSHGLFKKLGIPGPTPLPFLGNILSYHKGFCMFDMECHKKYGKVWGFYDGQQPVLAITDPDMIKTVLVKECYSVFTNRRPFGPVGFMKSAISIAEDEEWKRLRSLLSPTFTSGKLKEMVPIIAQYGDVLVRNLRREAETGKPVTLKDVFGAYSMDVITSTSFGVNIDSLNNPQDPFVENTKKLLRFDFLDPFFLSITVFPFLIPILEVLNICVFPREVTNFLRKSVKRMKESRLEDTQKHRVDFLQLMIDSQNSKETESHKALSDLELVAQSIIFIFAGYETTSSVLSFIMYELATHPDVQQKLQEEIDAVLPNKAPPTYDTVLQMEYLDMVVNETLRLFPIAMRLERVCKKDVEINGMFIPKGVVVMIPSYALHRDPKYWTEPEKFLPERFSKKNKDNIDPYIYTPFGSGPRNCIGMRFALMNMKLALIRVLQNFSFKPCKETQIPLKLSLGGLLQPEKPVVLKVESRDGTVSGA

CYP2D6 = CYP2D6 (Homo sapiens, UniProt P10635); test: CYP2D6 inhibition assay (bufuralol, pooled human liver microsomes)
CYP2D6, sequence (P10635 whole entry): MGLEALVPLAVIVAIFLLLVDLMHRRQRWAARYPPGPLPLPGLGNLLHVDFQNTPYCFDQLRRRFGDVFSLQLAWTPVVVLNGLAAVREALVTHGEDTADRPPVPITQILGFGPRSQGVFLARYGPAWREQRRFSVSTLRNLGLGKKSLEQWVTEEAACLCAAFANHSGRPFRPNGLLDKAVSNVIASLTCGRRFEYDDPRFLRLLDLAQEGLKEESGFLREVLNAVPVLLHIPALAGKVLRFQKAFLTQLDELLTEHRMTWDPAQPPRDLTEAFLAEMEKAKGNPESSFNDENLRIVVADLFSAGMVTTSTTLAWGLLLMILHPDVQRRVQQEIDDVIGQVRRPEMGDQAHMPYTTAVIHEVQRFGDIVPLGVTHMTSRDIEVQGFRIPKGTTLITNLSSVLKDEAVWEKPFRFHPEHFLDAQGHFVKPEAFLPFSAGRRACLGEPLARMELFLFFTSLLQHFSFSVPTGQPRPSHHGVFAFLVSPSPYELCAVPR

[2] = system: Aβ40 in conditioned medium of cells stably expressing Amyloid Precursor Protein (APP); test: In vitro BACE cell-based assay (Aβ40 in conditioned medium, sandwich ELISA); details: Homo sapiens;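 note: compounds added as a dilution series, secreted peptide quantified by europium time-resolved fluorescence readout, potency fitted from percent of control versus compound concentration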
[3] = Microsomal stability assay, rat liver microsomes;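 note: rat liver microsomes (0.25 mg/mL) with about 1 µM compound plus 1 mM NADPH, pH 7.4, 37 °C for 30 min, parent left measured by LC-MS/MS against 0 min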
[4] = target: Beta Secretase enzyme (BACE) (Homo sapiens, UniProt P56817); test: In vitro enzymatic BACE FRET (fluorescence resonance energy transfer) assay; assay type: biochemical;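 note: fluorescence read after 1 h with 50 nM quenched peptide substrate spanning the BACE cleavage site, in pH 4.2 acetate buffer containing 10% DMSO and nonionic detergent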
Beta Secretase enzyme (BACE), sequence (P56817 46-501): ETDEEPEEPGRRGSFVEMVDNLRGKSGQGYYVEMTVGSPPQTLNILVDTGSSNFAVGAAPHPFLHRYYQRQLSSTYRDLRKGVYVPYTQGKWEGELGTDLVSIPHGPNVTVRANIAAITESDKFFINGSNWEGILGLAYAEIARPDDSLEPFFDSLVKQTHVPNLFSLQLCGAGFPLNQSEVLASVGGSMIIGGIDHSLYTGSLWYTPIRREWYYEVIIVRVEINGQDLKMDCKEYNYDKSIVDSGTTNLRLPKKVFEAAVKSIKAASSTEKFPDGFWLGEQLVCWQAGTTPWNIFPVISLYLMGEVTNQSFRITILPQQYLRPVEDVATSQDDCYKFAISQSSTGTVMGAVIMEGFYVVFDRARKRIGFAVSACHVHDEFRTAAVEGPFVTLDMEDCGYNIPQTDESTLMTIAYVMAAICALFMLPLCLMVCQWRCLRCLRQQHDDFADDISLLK

[5] = 2D6 IC50 (uM), CYP enzyme inhibition
[6] = HEK293, HEK cell-based assay, IC50's in uM, read-out: HEK cell assay
[7] = BACE enzyme assay, IC50's in uM, read-out: BACE1 FRET assay
[8] = HEK293, HEK cells, read-out: HEK cell assay (IC50)
[9] = read-out: BACE1 FRET assay (IC50)
[10] = 2D6 IC50 (uM), CYP2D6 inhibition
[11] = HEK293, HEK cell-based assay IC50, read-out: HEK cell assay
[12] = BACE enzyme assay IC50, read-out: BACE1 FRET assay
[13] = HEK293, HEK cells, read-out: HEK cell assay
[14] = BACE enzyme assay, read-out: BACE1 FRET assay

Structure (SMILES) | HLM ([1]; human liver microsomal data) [µL/min/mg] | IC50 (CYP3A4 (CYP3A)) [nM] | IC50 (CYP2D6; [5]) [µM] | RLM ([3]; rat liver microsomal data) [µL/min/mg] | HLM ([1]; human liver microsomes) [µL/min/mg] | RLM ([3]; rat liver microsomes) [µL/min/mg] | IC50 [2, 13] [µM] | IC50 [4, 14] [µM] | other results
COCC(=O)N[C@@H](Cc1cccc(-c2nccs2)c1)[C@H](O)CN[C@H]1CC2(CCC2)Oc2ncc(CC(C)C)cc21 [Example 757, N-((1S,2R)-2-hydroxy-3-(((4′S)-6′-(2-methylpropyl)-3′,4′-dihydrospiro[cyclobutane-1,2′-pyrano[2,3-b]pyridin]-4′-yl)amino)-1-(3-(1,3-thiazol-2-yl)benzyl)propyl)-2-methoxyacetamide] | 60 | 250 | 0.45 | 60 |  |  |  |  | IC50 [2, 6]: 0.018 µM; IC50 [4, 7]: 0.007 µM
CO[C@H](C)C(=O)N[C@@H](Cc1cccc(F)c1)[C@H](O)CN[C@H]1CC2(CCC2)Oc2c(-c3ccncc3)cc(CC(C)C)cc21 [compound 609] |  | 100 |  |  | 64 | 137 |  |  | IC50 (CYP2D6; 2D6 IC50, CYP2D6 inhibition): 2 µM; IC50 [2, 8]: 0.005 µM; IC50 [4, 9]: 0.008 µM
COCC(=O)N[C@@H](Cc1cccc(F)c1)[C@H](O)CN[C@H]1CC2(CCC2)Oc2c(-c3ccncc3F)cc(CC(C)(C)C)cc21 [compound 668] |  | 100 |  |  | 118 | 197 |  |  | IC50 (CYP2D6; 2D6 IC50, CYP2D6 inhibition): 2.9 µM; IC50 [2, 8]: 0.018 µM; IC50 [4, 9]: 0.004 µM
CN1CCO[C@H](C(=O)N[C@@H](Cc2ccc(F)cc2)[C@H](O)CN[C@H]2CC3(CCC3)Oc3ncc(CC(C)(C)C)cc32)C1 [compound 744] |  | 900 |  |  | 333 | 266 |  |  | IC50 (CYP2D6; [10]): 11.2 µM; IC50 [2, 11]: 0.075 µM; IC50 [4, 12]: 0.372 µM
CC(=O)N[C@@H](Cc1ccc(F)c(-c2ccncc2)c1)[C@H](O)CN[C@H]1CC2(CCC2)Oc2ccc(CC(C)(C)C)cc21 [compound 625] |  | 160 |  |  | 389 | 330 |  |  | IC50 (CYP2D6; 2D6 IC50, CYP2D6 inhibition): 0.2 µM; IC50 [2, 8]: 0.057 µM; IC50 [4, 9]: 0.042 µM
COCC(=O)N[C@@H](Cc1ccccc1)[C@H](O)CN[C@H]1CC2(CCC2)Oc2c(Br)cc(CC(C)C)cc21 [compound 544] | 399 | 1800 | 7 | 662 |  |  | 0.937 | 0.005 | 
COCC(=O)N[C@@H](Cc1ccccc1)[C@H](O)CN[C@H]1CC2(CCC2)Oc2c1cc(CC(C)C)cc2-n1ccnc1 [compound 546] | 75 | 100 | 3.8 | 267 |  |  | 0.033 | 0.025 | 
CCO[C@H](C)C(=O)N[C@@H](Cc1ccc2c(c1)OCO2)[C@H](O)CN[C@H]1CC2(CCC2)Oc2ncc(CC(C)C)cc21 [compound 808] | 49 | 100 | 2.3 | 179 |  |  |  |  | IC50 [2, 6]: 0.414 µM; IC50 [4, 7]: 0.138 µM
COCC(=O)N[C@@H](Cc1cccc(F)c1)[C@H](O)CN[C@H]1CC2(CCC2)Oc2ccc(C[C@H](C)F)cc21 [compound 512] | 614 | 5700 | 0.5 | 829 |  |  | 0.061 | 0.028 | 
COCC(=O)N[C@@H](C[C@@H]1CCOC1)[C@H](O)CN[C@H]1CC2(CCC2)Oc2ncc(CC(C)(C)C)cc21 [compound 462] | 107 | 8500 |  | 68 |  |  |  |  | IC50 (CYP2D6; 2D6 IC50, CYP enzyme inhibition): 16.9 µM; IC50 ([2]; HEK293, Table 2, HEK cells, read-out: HEK cell assay): 0.649 µM; IC50 ([4]; Table 2, read-out: BACE1 FRET assay): 0.432 µM
CO[C@H](C)C(=O)N[C@@H](Cc1cc(F)cc(F)c1)[C@H](O)CN[C@H]1CC2(CCC2)Oc2c1cc(CC(C)(C)C)nc2-n1ccnc1 [compound 495] | 41 | 100 | 2 | 62 |  |  | 0.08 | 0.02 | 
CNc1nc(CC(C)(C)C)cc2c1OC1(CCC1)C[C@@H]2NC[C@@H](O)[C@H](Cc1ccc(F)c(-c2nccs2)c1)NC(=O)COC [compound 716, N-((1S,2R)-3-(((4′S)-6′-(2,2-dimethylpropyl)-8′-(methylamino)-3′,4′-dihydrospiro[cyclobutane-1,2′-pyrano[2,3-c]pyridin]-4′-yl)amino)-1-(4-fluoro-3-(1,3-thiazol-2-yl)benzyl)-2-hydroxypropyl)-2-methoxyacetamide] |  | 400 |  |  | 123 | 190 |  |  | IC50 (CYP2D6; [10]): 1.5 µM; IC50 [2, 11]: 0.025 µM; IC50 [4, 12]: 0.032 µM
COCC(=O)N[C@@H](Cc1cccc(F)c1)[C@H](O)CN[C@H]1CC2(CCC2)Oc2c1cc(CC(C)(C)C)cc2-n1ccnc1 [compound 505] | 51.5 | 100 | 1.9 | 153 |  |  | 0.006 | 0.019 | 
CC(=O)N[C@@H](Cc1ccc(F)cc1)[C@H](O)CN[C@H]1CC2(CCC2)Oc2ncc(C(F)(F)C(C)(C)C)cc21 [compound 570] | 101 | 800 | 7.1 | 162 |  |  | 0.405 | 0.136 | 
COCC(=O)N[C@@H](Cc1cc(F)cc(F)c1)[C@H](O)CN[C@@H]1CC2(CCC2)Oc2c1cc(CC(C)(C)C)nc2-c1cnc[nH]1 [compound 509] | 74 | 100 | 2.3 | 70 |  |  | 0.077 | 0.487 | 
Cc1nc(CN2CCO[C@@H](C(=O)N[C@@H](Cc3ccc(F)cc3)[C@H](O)CN[C@H]3CC4(CCC4)Oc4ncc(CC(C)(C)C)cc43)C2)cs1 [compound 755] | 522 | 300 | 3.3 | 191 |  |  |  |  | IC50 [2, 6]: 0.007 µM; IC50 [4, 7]: 0.012 µM
CO[C@H](C)C(=O)N[C@@H](Cc1ccc2c(c1)OCO2)[C@H](O)CN[C@H]1CC2(CCC2)Oc2ccc(C[C@H](C)F)cc21 [compound 555] | 269 | 400 | 0.9 | 543 |  |  | > 10 | 3.42 | 
COCC(=O)N[C@@H](Cc1ccc(F)c(-c2cncs2)c1)[C@H](O)CN[C@H]1CC2(CCC2)Oc2ncc(CC(C)(C)C)cc21 [compound 684, N-((1S,2R)-3-(((4′S)-6′-(2,2-dimethylpropyl)-3′,4′-dihydrospiro[cyclobutane-1,2′-pyrano[2,3-b]pyridin]-4′-yl)amino)-1-(4-fluoro-3-(1,3-thiazol-5-yl)benzyl)-2-hydroxypropyl)-2-methoxyacetamide] |  | 100 |  |  | 56 | 114 |  |  | IC50 (CYP2D6; [10]): 0.2 µM; IC50 [2, 11]: 0.012 µM; IC50 [4, 12]: 0.005 µM
Cc1ccc(CN2CCO[C@@H](C(=O)N[C@@H](Cc3ccc(F)cc3)[C@H](O)CN[C@H]3CC4(CCC4)Oc4ncc(CC(C)(C)C)cc43)C2)cc1 [compound 709] |  | 300 |  |  | 614 | 375 |  |  | IC50 (CYP2D6; [10]): 3.7 µM; IC50 [2, 11]: 0.038 µM; IC50 [4, 12]: 0.028 µM
CC(C)Cc1cnc2c(c1)[C@@H](NC[C@H](O)[C@@H](Cc1cccc(-c3nccs3)c1)NC(=O)[C@H]1CCCO1)CC1(CCC1)O2 [compound 795] | 127 | 200 | 0.6 | 64 |  |  |  |  | IC50 [2, 6]: 0.206 µM; IC50 [4, 7]: 0.286 µM

— patent US8163909B2, “Substituted hydroxyethyl amine compounds as beta-secretase modulators and methods of use” (Amgen Inc., priority 2007, dated 2012)
